{
  "source": "paper PMC3905461",
  "about": "(Chembiochem : a European journal of chemical biology, 2013)",
  "key": {"[1]": {"molecular_target": "T1, RpaR (Rhodopseudomonas palustris, UniProt Q6NCZ5)", "T1 sequence (Q6NCZ5 whole entry)": "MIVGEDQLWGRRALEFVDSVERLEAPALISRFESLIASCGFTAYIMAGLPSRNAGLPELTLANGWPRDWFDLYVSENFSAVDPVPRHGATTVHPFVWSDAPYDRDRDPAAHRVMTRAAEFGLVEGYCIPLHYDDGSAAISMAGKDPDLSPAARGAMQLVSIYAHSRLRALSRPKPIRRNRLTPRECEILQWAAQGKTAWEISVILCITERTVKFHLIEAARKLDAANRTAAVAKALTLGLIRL", "test": "RpaR agonism reporter gene assay", "assay_type": "cell-based", "settings": "for Percent activation: 1 μM synthetic ligand, relative to p-cAHL at 1 μM, triplicate of triplicate, error < ±10%; for EC50: EC50 value, dose response in R. palustris CGA814 reporter; for Drop in agonistic activity relative to 1: compared with 2-fluoro cinnamoyl HL 1; for activation at 1 µM: read-out: Percent activation"}, "[2]": {"tested_on": "LuxR", "settings": "V. fischeri LuxR; ref 7j, 7l; cited from earlier work"}, "[3]": {"molecular_target": "T1, RpaR", "test": "Competitive RpaR antagonism reporter gene assay against p-cAHL", "assay_type": "cell-based", "settings": "for Percent inhibition: 1 μM synthetic ligand against p-cAHL at its EC50 value (1 nM), negative values indicate agonistic responses, error < ±10%"}, "[4]": {"tested_on": "other LuxR-type receptors", "settings": "ref 7j; cited from earlier work"}, "[5]": {"molecular_target": "T1, RpaR", "settings": "extracts from wild-type R. palustris grown with the aromatic acid; cited from earlier work"}},
  "note": "Values joined by “and” are separate entries in the source; they are usually repeats but may differ in a detail not shown here. Equal values may be shown once.",
  "data": [
    {"smiles": "O=C(/C=C/c1ccc(O)c(O)c1)N[C@H]1CCOC1=O", "note": "[Compound 17, caffeoyl HL]", "values": [
      {"measurement": "Percent activation", "setting": "[1]", "result": 14, "unit": "%"}
    ]},
    {"smiles": "O=C(CCC1CCCCC1)N[C@H]1CCOC1=O", "note": "[Compound B11, cyclohexyl HL]", "values": [
      {"measurement": "LuxR antagonism", "setting": "[2]", "result": "strong antagonists"}
    ]},
    {"smiles": "O=C(CCc1ccc([N+](=O)[O-])cc1)N[C@H]1CCOC1=O", "note": "[Compound E37, 4-NO2 PPHL]", "values": [
      {"measurement": "LuxR antagonism", "setting": "[2]", "result": "strong antagonists"},
      {"measurement": "IC50", "setting": "[3]", "result": 235, "unit": "nM"},
      {"measurement": "Percent inhibition", "setting": "[3]", "result": 89, "unit": "%"}
    ]},
    {"smiles": "O=C(/C=C/c1cccc(F)c1)N[C@H]1CCOC1=O", "note": "[Compound 2]", "values": [
      {"measurement": "EC50", "setting": "[1]", "result": 65.6, "unit": "nM"},
      {"measurement": "Drop in agonistic activity relative to 1", "setting": "[1]", "result": 20, "unit": "fold"},
      {"measurement": "activation at 1 µM", "setting": "[1]", "result": 84, "unit": "%"}
    ]},
    {"smiles": "O=C(COc1ccccc1)N[C@H]1CCOC1=O", "note": "[Compound E14, POHL]", "values": [
      {"measurement": "Activity as agonist or antagonist in other LuxR-type receptors", "setting": "[4]", "result": "largely inactive"}
    ]},
    {"smiles": "O=C(CCc1ccc(F)cc1)N[C@H]1CCOC1=O", "note": "[Compound E29, 4-F PPHL]", "values": [
      {"measurement": "LuxR antagonism", "setting": "[2]", "result": "strong antagonists"},
      {"measurement": "IC50", "setting": "[3]", "result": 300, "unit": "nM"},
      {"measurement": "Percent inhibition", "setting": "[3]", "result": 70, "unit": "%"}
    ]},
    {"smiles": "O=C(/C=C/c1ccc(O)cc1)N[C@H]1CCOC1=O", "note": "[p-cAHL, p-coumaroyl HL, reference compound]", "values": [
      {"measurement": "EC50", "setting": "[1]", "result": "1 nM and ~1 nM"}
    ]},
    {"smiles": "O=C(CCc1ccc2c(c1)OCO2)N[C@H]1CCOC1=O", "note": "[Compound E39, 1,3-benzodioxole PPHL]", "values": [
      {"measurement": "IC50", "setting": "[3]", "result": 228, "unit": "nM"},
      {"measurement": "Percent inhibition", "setting": "[3]", "result": 63, "unit": "%"}
    ]},
    {"smiles": "COc1cc(C=CC(=O)NC2CCOC2=O)ccc1O", "note": "(stereo not shown) [Compound 18]", "values": [
      {"measurement": "RpaR agonist activity", "setting": "[5]", "result": "inactive"}
    ]},
    {"smiles": "O=C(/C=C/c1ccccc1)N[C@H]1CCOC1=O", "note": "[Compound B10, cinnamoyl HL]", "values": [
      {"measurement": "EC50", "setting": "[1]", "result": 32.3, "unit": "nM"},
      {"measurement": "activation at 1 µM", "setting": "[1]", "result": 65, "unit": "%"}
    ]},
    {"smiles": "O=C(/C=C/c1cccc(O)c1)N[C@H]1CCOC1=O", "note": "[Compound 16, meta-cAHL]", "values": [
      {"measurement": "EC50", "setting": "[1]", "result": 144, "unit": "nM"},
      {"measurement": "activation at 1 µM", "setting": "[1]", "result": 94, "unit": "%"}
    ]},
    {"smiles": "O=C(/C=C/c1c(F)cccc1F)N[C@H]1CCOC1=O", "note": "[Compound 4, 2,6-difluoro cinnamoyl HL]", "values": [
      {"measurement": "EC50", "setting": "[1]", "result": 4.8, "unit": "nM"},
      {"measurement": "activation at 1 µM", "setting": "[1]", "result": 101, "unit": "%"}
    ]},
    {"smiles": "O=C(COc1cccc([N+](=O)[O-])c1)N[C@H]1CCOC1=O", "note": "[Compound E25, 3-NO2 POHL]", "values": [
      {"measurement": "LuxR antagonism", "setting": "[2]", "result": "strong antagonists"},
      {"measurement": "IC50", "setting": "[3]", "result": 238, "unit": "nM"},
      {"measurement": "Percent inhibition", "setting": "[3]", "result": 63, "unit": "%"}
    ]},
    {"smiles": "O=C(/C=C/c1ccccc1Br)N[C@H]1CCOC1=O", "note": "[Compound 10, 2-bromo cinnamoyl HL]", "values": [
      {"measurement": "EC50", "setting": "[1]", "result": 77.1, "unit": "nM"},
      {"measurement": "Drop in agonistic activity relative to 1", "setting": "[1]", "result": "~ 20 fold"},
      {"measurement": "activation at 1 µM", "setting": "[1]", "result": 118, "unit": "%"}
    ]},
    {"smiles": "O=C(/C=C/c1ccc(F)cc1)N[C@H]1CCOC1=O", "note": "[Compound 3, 4-fluoro cinnamoyl HL]", "values": [
      {"measurement": "Agonistic activity at 1 μM", "setting": "[1]; 1 μM", "result": "inactive"},
      {"measurement": "Percent activation", "setting": "[1]", "result": 1, "unit": "%"}
    ]},
    {"smiles": "O=C(CCc1ccc(O)cc1)N[C@H]1CCOC1=O", "note": "[Compound 19]", "values": [
      {"measurement": "EC50", "setting": "[1]", "result": 532, "unit": "nM"},
      {"measurement": "activation at 1 µM", "setting": "[1]", "result": 72, "unit": "%"},
      {"measurement": "EC50 value higher than p-cAHL", "setting": "[1]; relative to p-cAHL", "result": 500, "unit": "fold"}
    ]},
    {"smiles": "O=C(/C=C/c1ccccc1O)N[C@H]1CCOC1=O", "note": "[Compound 15, ortho-cAHL]", "values": [
      {"measurement": "EC50", "setting": "[1]", "result": 1170, "unit": "nM"},
      {"measurement": "activation at 1 µM", "setting": "[1]", "result": 59, "unit": "%"}
    ]},
    {"smiles": "O=C(/C=C/c1ccccc1F)N[C@H]1CCOC1=O", "note": "[Compound 1, 2-fluoro cinnamoyl HL]", "values": [
      {"measurement": "EC50", "setting": "[1]", "result": 3.4, "unit": "nM"},
      {"measurement": "activation at 1 µM", "setting": "[1]", "result": 99, "unit": "%"}
    ]}
  ]
}
